The values that follow come from patent publication US20250367283A1, “MEVALONATE PATHWAY INHIBITOR AS HIGHLY-EFFICIENT VACCINE ADJUVANT” (Tsinghua University, priority 2015, published 2025).

Like-named read-outs stand apart in the source and are kept apart here. A value given as a limit tells only on which side of the number the result lay.

Assay [1] concerns anti-OVA IgM and IgG antibodies. Nature of the assay: OVA evaluation system: adjuvant activity in antibody titer in mice. The class given is in vivo. To be noted: for IgM and IgG antibody titers vs PBS or DMSO control / adjuvant effect among statin drugs: statins with OVA, soles injection; for IgM and IgG antibody titers vs PBS or DMSO control: Day 7 and Day 14. The method, then:
OVA evaluation system was used to determine adjuvant activity in antibody titer.
Mice of C57B/6 strain were used. The mice in the experimental group were injected with the obtained mixture of each of the statins and OVA antigen through soles injection, with 20 μl for each mouse. The mice in the control group were injected with a 1:1 mixture of PBS or DMSO (10 μl) and 10 μl OVA antigen (PBS or DMSO is 10 μl, respectively, and the antigen is 10 μl) through soles injection, with 20 μl for each mouse. On Day 7 and Day 14 after immunization, blood was taken from the mice's orbits, with 100 μl was taken from each mouse. The obtained blood was left at 4° C. overnight, and centrifuged at 6000 rpm for 8 min. The supernatant serum was removed and the titers of anti-OVA IgM and IgG antibodies in the serum were determined.
Test of the OVA antibody titer: The OVA protein was diluted to a concentration of 2 μg/ml with a carbonate solution of pH 9.6, coated in a 96-well ELISA plate at 50 μl per well, and left at 4° C. overnight. The ELISA plate was washed five times with PBS containing 0.05% Tween 20, blocked with 1% BSA solution at 200 μl per well, and incubated at room temperature for 2 h. The ELISA plate was washed five times with PBST (Phosphate Buffered Saline with Tween), a 2-fold serial dilution of the mouse serum after immunized with OVA was added at 50 μl per well and incubated at room temperature for 2 h. After the ELISA plate was washed five times with PBST, HRP (horseradish peroxidase)-labeled goat-anti-mouse IgM or IgG antibody was added and incubated at room temperature for 45 min. The ELISA plate was washed five times with PBST, and a color developing solution of sodium citrate OPD (o-phenylenediamine) was added. After 10 min of color development in the dark, sulfuric acid was added to terminate the reaction. The reading was performed with ELIASA OD490. The maximum serum dilution factor, when the ratio of light absorptions of the experimental group to the control group was >2.0, was the titer of the anti-OVA antibody in the serum.
Each test compound was formulated at a concentration of 2 mg/ml and the concentration of OVA antigen was 2 mg/ml. Each compound was mixed with OVA at 1:1. Each C57B/6 mouse in the experimental group was injected with 100 μl of the mixture (containing 50 μl of the antigen and 50 μl of the compound) by intramuscular injection at the right thigh. On Day 7 and Day 14 after immunization, blood was taken from the mice's orbit, and 100 μl was taken for each mouse. The obtained blood was allowed to stand at 4° C. overnight, and centrifuged at 6000 rpm for 8 min. The supernatant serum was removed, and the titers of anti-OVA IgM and IgG antibodies in the serum were determined.
Method: each of the test compounds (the 10 bisphosphonates as described above) was mixed with the OVE antigen at 1:1, and the concentrations of bisphosphonic acid and OVA were both 10 mg/ml. Mice of C57B/6 strain were used. The mice in the experimental group were injected with the mixture of each of the test compounds and OVA antigen through soles injection, with 20 μl for each mouse, and wherein the amounts of OVA antigen and each of the test compounds were both 100 ug. The mice in the control group were injected with a 1:1 mixture of […] and 10 μl OVA antigen through sole injection. On Day 7 and Day 14 after immunization, blood was taken from the mice's orbits, and 100 μl was taken from each mouse.
The obtained blood was left at 4° C. overnight, and centrifuged at 6000 rpm for 8 min. The supernatant serum was removed, and the titers of anti-OVA IgM and IgG antibodies in the serum were determined.
Method: TH-Z144 and TH-Z145 were prepared at the concentration of 10 mg/ml, the concentration of OVA antigen was also 10 mg/ml, and the compound and the antigen were mixed at 1:1. Mice of C57B/6 strain were used.

Assay [2] concerns PvGGPPS (geranylgeranyl pyrophosphate synthase from Plasmodium). Nature of the assay: In vitro PvGGPPS enzymatic activity assay. The format is biochemical. To be noted: GPP and IPP substrates. As for the experimental part: PvGGPPs with 6 consecutive His at the N-terminus was induced to express in vitro, collected, and purified by Ni column. In vitro PvGGPPs enzymatic activity assay was performed in a 96-well plate at 200 μl of solution per well. The buffer of the system was 25 mM HEPES, 2.5 mM MgCl2, pH 7.4. Using GPP and IPP as reaction substrates, a 360 nm continuous spectrophotometric detection was performed in a phosphate lyase system. ORIGIN 8.0 software was used to plot and fit.

Assay [3] concerns the target humanized farnesyl pyrophosphate synthase (HsFPPS) (Homo sapiens (Human), UniProt P14324). As to the kind of experiment: In vitro HsFPPS enzyme activity assay. The class given is biochemical. The method, then: The measurement method is briefly described as follows: the expression of HsFPPS with 6 consecutive His at the N-terminus was induced in vitro, collected, and purified by Ni column. An in vitro HsFPPS enzyme activity assay was performed in a 96-well plate with 200 μl of solution per well. The buffer of the system was 25 mM HEPES, 2.5 mM MgCl2, pH 7.4. Using DMAPP and IPP as reaction substrates, the change of the UV value at a wavelength of 360 nm was monitored in real time in a phosphate lyase system. The ORIGIN 8.0 software was used to plot and fit. The IC50 values for the inhibition of FPPS by the TH-Z80 series of compounds were shown in the following table, in micromoles per liter (μM).
HsFPPs with 6 consecutive His at the N-terminus was induced to express in vitro, collected, and purified by Ni column. In vitro HsFPPs enzymatic activity assay was performed in a 96-well plate at 200 μl of solution per well. The buffer of the system was 25 mM HEPES, 2.5 mM MgCl2, pH 7.4. Using DMAPP and IPP as reaction substrates, the changes of UV at 360 nm were monitored in real-time in phosphate lyase system. ORIGIN 8.0 software was used to plot and fit.

Assay [4] deals with Plasmodium falciparum 3D7. As to the kind of experiment: Test of plasmodium activity (SYBR-GREEN1). The format is cell-based. Particulars: infected erythrocytes, 72 hours; read-out: Malaria (IC50/μM). As for the experimental part: Plasmodium falciparum 3D7 was cultured with […] medium mixed with 10% human O-type blood serum and 25 mM HEPES. The cultivation process was maintained in a carbon dioxide incubator under 5% carbon dioxide. In vitro drug testing experiments were performed on a 96-well plate. The test drug was dissolved in PBS and pre-diluted with complete medium. Infected erythrocytes were cultured in triplicate for 72 hours in 3-fold serial dilutions of drug. Then an equal amount of SYBR-GREEN1 was added to each well. The detection was then performed at 485 nm for excitation light and 538 nm for emitted light. […] ORIGIN 8.0 software was used to plot and fit.

Another assay has as its system MDA-MB-231 cells. As to the kind of experiment: MDA-MB-231 proliferation MTT test. To be noted: 72 hours. The class given is cell-based, human. As for the experimental part:
• Drug dissolution: […] The prepared bisphosphonate stock solution was diluted with DMEM complete medium. The maximum concentration was 1 mM. The dilution was performed serially in a ratio of 1:3.2 with a total of 11 concentration gradients; a. MDA-MB-231 cells were digested the day before. Centrifugation was performed at 1000 rmp for 3 min. The cells were counted. The cells were seeded into a 96-well plate at 3000 cells/well in a volume of 100 μl per well and cultured for 14-16 h. It should be noted that the cell count should be accurate, and the amount of cells seeded per well should be consistent. The cell suspension can be gently shaken in the intermittence of plating, or a row of cells were plated and the cell suspension was pipetted gently with a pipette. The speed of pipetting into the 96-well plate with a pipette should not be too fast or too slow, in order to avoid uneven distribution of cells in the plate, affecting the experiments; the wells at the fringe of the 96-well plate will evaporate slightly faster and the concentration of the solution will change slightly faster. Under normal situation, the central 60 wells should be selected for stimulation. Also, the pipetted liquid should be prevented from creating bubbles. b. After the cells had adhered, the liquid in the 96-well plate was pipetted out and discarded. […] c. 72 hours after the action of drug, the prepared MTT solution (immediately before use, a certain amount of MTT powder was weighed and dissolved in PBS at 5 mg/ml, under dark, filter with 0.22 filter membrane) was added directly to each well with 20 μl per well and continued to culture for 4 hours; d. The filter paper (which can be replaced by an absorbent paper) was laid, and the plate was inverted gently (be careful to prevent the crystal in the well from dropping). After the liquid in the wells was removed, 150 μl of DMSO was added to dissolve the crystals, and the mixture was shaken thoroughly with a shaker for a period of time just to dissolve the crystals. The absorbance (OD value) of each well was measured at 570 nm with ELIASA. The mean value of blank control was calculated as OD Blank. OD value for each well=OD measured-OD Blank. ODNT mean value was calculated. […] Mean and standard error were then calculated. The mean and standard error of each group of drug concentration (uM) and corresponding drug inhibition rate were fitted by Graph Prism software to obtain the IC50 of the drug.
On the technique in general: Tetrazolium assays rely on reduction of a dye to a coloured formazan, in cell work by metabolically active cells.

[5] abbreviates: Example 15 table, read-out: HsFPPS (IC50/μM).
The mark [6] stands for this setting: TH-Z80 series, DMAPP and IPP substrates, pH 7.4, read-out: IC50 for inhibition of FPPS.
Where [7] appears, read: o-aminopyridine bisphosphonic acid compounds, read-out: IC50 (inhibition of FPPS).

Chain of humanized farnesyl pyrophosphate synthase (HsFPPS) (P14324 whole entry, looked up): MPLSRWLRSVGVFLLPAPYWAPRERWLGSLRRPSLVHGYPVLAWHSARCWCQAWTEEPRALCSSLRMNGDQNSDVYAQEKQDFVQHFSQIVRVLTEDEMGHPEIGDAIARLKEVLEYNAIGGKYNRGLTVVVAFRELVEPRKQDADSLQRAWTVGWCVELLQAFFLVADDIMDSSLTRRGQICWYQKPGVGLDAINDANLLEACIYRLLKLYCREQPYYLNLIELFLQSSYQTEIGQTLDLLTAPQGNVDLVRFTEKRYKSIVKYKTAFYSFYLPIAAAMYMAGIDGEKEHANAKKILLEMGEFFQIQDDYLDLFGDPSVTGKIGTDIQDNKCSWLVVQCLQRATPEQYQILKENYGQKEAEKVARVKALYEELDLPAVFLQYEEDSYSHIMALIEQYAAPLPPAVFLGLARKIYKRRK

On to `CC(C)c1nc(N(C)S(C)(=O)=O)nc(-c2ccc(F)cc2)c1/C=C/[C@@H](O)C[C@@H](O)CC(=O)O` [rosuvastatin, reference compound], for which, in assay [1], the “IgM and IgG antibody titers vs PBS or DMSO control” value was “significantly higher titers”.
As for `CCCOc1ccc2c(c1)ncn2CC(O)(P(=O)(O)O)P(=O)(O)O` [TH-Z149], the IC50 in assay [2] stood at 0.47 µM; in assay [3] (setting [5]), 0.27 µM; in assay [3] (setting [6]) it was 0.27 µM; in assay [4], 0.92 µM; with MDA-MB-231 cells it was 36100 nM.
As for `CCCCCOc1ccc2c(c1)ncn2CC(O)(P(=O)(O)O)P(=O)(O)O` [TH-Z151], the IC50 in assay [2] turned out to be 0.46 µM; in assay [3] (setting [5]) it was 0.12 µM; in assay [3] (setting [6]), 0.12 µM; in assay [4], 1.25 µM; in the assay with MDA-MB-231 cells, 406000 nM.
In the case of `O=P(O)(O)C(Nc1cc(OCc2ccccc2)ccn1)P(=O)(O)O` [TH-Z106], the IC50 in assay [3] (setting [7]) was 0.108 µM.
Turning to `O=P([O-])([O-])C(CCCc1cccc(Oc2ccccc2)c1)S(=O)(=O)[O-].[K+].[K+].[K+]` (stereo not drawn) [TH-Z66, reference compound], the “IgG antibody titer vs control group” value in assay [1] (7 days after immunization) is “lower than those in mice in the control group”. Besides, in assay [1] (SQS inhibitor), the adjuvant effect result is recorded as “does not have an adjuvant effect”. Further, the “IgG and IgM antibody titers vs PBS control” value in assay [1] (SQS inhibitor 100 μg with OVA, sole) is on record as “did not differ significantly”.
As for `CCCCCCCCCCCCOc1ccc2c(c1)ncn2CC(O)(P(=O)(O)O)P(=O)(O)O` [TH-Z154], the IC50 in assay [2] is 5.16 µM; in assay [3] (setting [5]), above 5 µM; in assay [3] (setting [6]), above 5 µM; in assay [4] it was 0.75 µM.
Turning to `CCCCCCOc1ccn2c(CC(O)(P(=O)(O)O)P(=O)(O)O)cnc2c1` [TH-Z97, (1-hydroxy-2-(7-n-hexyloxyimidazo[1,2-a]pyridin-3-yl)ethane-1,1-diyl)bisphosphonic acid], in assay [1] (Day 7 and Day 14, OVA), the “IgG antibody titer vs PBS control” value was “significantly higher titers”. Further, the IC50 in assay [3] was 0.06 µM.
For the molecule `NC(=O)c1cc(COc2ccnc(NC(P(=O)(O)O)P(=O)(O)O)c2)ccn1` [TH-Z109], the IC50 in assay [3] (setting [7]) was determined as 0.643 µM.
As for `O=C(O)C[C@H](O)C[C@H](O)/C=C/c1c(C2CC2)nc2ccccc2c1-c1ccc(F)cc1` [pitavastatin, reference compound], in assay [1], the “IgM and IgG antibody titers vs PBS or DMSO control” value is recorded as “significantly higher titers”.
Consider `CC[C@H](C)C(=O)O[C@H]1C[C@@H](C)C=C2C=C[C@H](C)[C@H](CC[C@@H]3C[C@@H](O)CC(=O)O3)[C@H]21` [lovastatin, reference compound], for which, in assay [1], the “adjuvant effect among statin drugs” value was “most significant adjuvant effects”; the “IgM and IgG antibody titers vs PBS or DMSO control” value is on record as “significantly higher titers”.
The corresponding values for `CC[C@H](C)C(=O)O[C@H]1CCC=C2C=C[C@H](C)[C@H](CC[C@@H]3C[C@@H](O)CC(=O)O3)[C@H]21` [mevastatin, reference compound] are “most significant adjuvant effects” and “significantly higher titers”.
On to `CC(C)n1c(/C=C/C(O)CC(O)CC(=O)O)c(-c2ccc(F)cc2)c2ccccc21` (stereo not drawn) [fluvastatin, reference compound], for which the “IgM and IgG antibody titers vs PBS or DMSO control” value in assay [1] is given as “significantly higher titers”.
Regarding `CC(=C\C(=O)O)/C=C(\C)C[C@H](C)CCCC[C@H]1OC(=O)[C@@H]1CO` [Hymeglusin, 11-[3R-(hydroxymethyl)-4-oxo-2R-oxetanyl]-3,5,7R-trimethyl-2E,4E-undecadienoic acid, reference compound], the “IgG antibody titer vs PBS control” value in assay [1] (100 μg, intramuscular, fourteen days after immunization) is reported as “significantly higher titers”.
In the case of `O=P(O)(O)C(O)(Cn1cnc2cc(OCl)ccc21)P(=O)(O)O` [II-7], the figures for the IC50 in assay [2], in assay [3] (setting [5]) and in assay [4] were 0.82 µM, 0.16 µM and 0.69 µM, respectively.
For the molecule `O=P(O)(O)C(Nc1cc(-n2cc3c(n2)CCCC3)ccn1)P(=O)(O)O` [TH-Z108], the IC50 in assay [3] (setting [7]) is 0.112 µM.
